Holding throughout (format): in vivo, NZB/W F1 mice
One assay deals with anti-dsDNA antibodies. The assay is described as follows: Serum anti-dsDNA antibodies (ELISA) in ASLN mice. The note with it: vs ASLN group, p<0.01, FIG. 3. The procedure:
(§1) An accelerated severe lupus nephritis (ASLN) mouse model was established in 8-week-old female NZB/W F1 mice by twice weekly intraperitoneal injection of lipopolysaccharide (LPS, 20 mg/kg body weight) (Sigma, NO, USA) as described in Shui et al., 2007 [51]. Two days after first dose of LPS for the ASLN induction, the mice were divided into two groups of more than 6 mice each and daily administrated with ginsenoside M1 or vehicle (normal saline) via oral gavage till mice sacrificed. 8-Week-old NZB/W F1 female mice (prior to onset of autoantibody production), injected with normal saline, were used as normal controls. All mice were killed at week 5 after disease induction. The tissue specimens of spleen, renal cortical tissue, blood, and urine were collected at the indicated times and stored appropriately before analysis.
Serum levels of anti-dsDNA antibodies were measured using an anti-mouse dsDNA enzyme-linked immunosorbent assay (ELISA) kit (Alpha Diagnostic, TX, USA) according to the manufacturer's instructions. The absorbance at 450 nm was measured using an ELISA plate reader (Bio-Tek, VT, USA).
In general terms: ELISA stands for enzyme-linked immunosorbent assay.

In assay [1] the test system is Toll-like receptor (TLR)7 gene expression. The assay is described as follows: Real-time RT-PCR of renal cortex TLR7 mRNA in ASLN mice. The note with it: normalized to GAPDH, vs ASLN group, p<0.01, FIG. 7. The method, then:
as §1
Renal cortex RNA was extracted using TRIzol reagent (Invitrogen) according to the manufacturer's instructions, and real-time reverse transcription-polymerase chain reaction (RT-PCR) was used to measure Toll-like receptor (TLR)7 gene expression. Real-time quantification was performed using a Bio-Rad iCycler iQ system according to the manufacturer's instructions. Amplifications were normalized to the values for GAPDH using the 2^−ΔCt method.
(Quantitative PCR measures a nucleic acid by following its amplification.)

For the next assay, the system named is T cells in splenocytes. As to the kind of experiment: T cell proliferation in splenocytes of ASLN mice (3H-methyl thymidine). The conditions noted are these: anti-CD3 stimulated splenocytes, vs ASLN group, p<0.01, FIG. 6. The method, then: as §1
Splenocytes from the mice were prepared as described previously, then were cultured in triplicate in wells (2.5×10^5 cells/well) in 96-well flat-bottom microtiter plates previously coated overnight at 4° C. with 0.25 μg/ml anti-mouse CD3 (145-2C11) antibodies (BD Biosciences). After 48 h, the cultures were pulsed with […] of ^3H-methyl thymidine (Amersham Pharmacia Biotech, Piscataway, N.J.) and harvested 16-18 h later, and the incorporated ^3H-methyl thymidine was measured using a Top Count (Packard, PerkinElmer, Boston, Mass.) as described previously.

The next assay relates to renal ROS production. The assay is described as follows: Reactive oxygen species (superoxide anion, DHE labeling) in kidney of ASLN mice. The method, then:
as §1
Kidney in situ superoxide anion production was determined by dihydroethidium (DHE) labeling. Fluorescent images were quantified by counting the percentage of positive nuclei in the total nuclei per kidney cross-section. Superoxide anion levels in serum and kidney tissues were measured as described previously and the results expressed as reactive luminescence units (RLU) per 15 min per milligram dry weight (i.e., RLU/15 min/mg dry weight).

In assay [2] the test system is serum inflammatory cytokines. As to the kind of experiment: Serum cytokine detection (Cytometric Bead Array) in ASLN mice. The note with it: vs ASLN group. The method, then:
as §1
To detect the level of IFN-γ, MCP-1, IL-12 p70, IL-6, TNF-α and IL-10 in serum by using BD Cytometric Bead Array Mouse Inflammation kit (BD Biosciences), according to the standard protocol, followed by flow cytometry (BD Biosciences).

The test system of assay [3] is accelerated severe lupus nephritis (ASLN) mouse model. The assay is described as follows: Urine protein, hematuria and renal function in ASLN mouse model. The procedure: as §1, with “analysis. Urine samples were collected in metabolic cages every week and urine protein levels were measured, and serum samples were collected to measure serum levels of blood urea nitrogen (BUN) and creatinine (Cr) as described previously (Ka, S. M. et al. Decoy receptor 3 ameliorates an autoimmune crescentic glomerulonephritis model in mice. J Am Soc Nephrol 18:2473-2485; 2007).” for “analysis.”

Assay [4] shares this test system. As to the kind of experiment: Renal histopathology (H&E) in ASLN mouse model. The conditions noted are these: ASLN mice, H&E light microscopy, FIG. 2. The procedure: as §1, with “The tissue specimens of spleen, renal cortical tissue, blood, and urine were collected at the indicated times and stored appropriately before analysis.” left out
Renal tissues were formalin-fixed, embedded in paraffin, and sections (3 μm) prepared and stained with hematoxylin and eosin (H&E) for renal histopathology as described previously. Quantitative analysis was performed by optical microscopy (Olympus BX51, Reflected Fluorescence System, Japan). The examination of renal pathology and scoring were performed in a blinded manner by a pathologist, and the severity of renal lesions was scored. The percentage of glomeruli showing proliferation, neutrophil infiltration, crescent formation, fibrinoid necrosis, and periglomerular inflammation was calculated from at least 100 randomly sampled glomeruli.

Take `CC(C)=CCC[C@](C)(O[C@@H]1OC(CO)[C@@H](O)[C@@H](O)C1O)[C@H]1CC[C@]2(C)C1[C@H](O)CC1[C@@]3(C)CC[C@H](O)C(C)(C)C3CC[C@]12C` (stereo partly drawn) [ginsenoside M1, 20-O-β-D-glucopyranosyl-20(S)-protopanaxadiol]: the “serum anti-dsDNA antibody level” value with anti-dsDNA antibodies is listed as “significantly decreased”. Further, in assay [1], the “renal mRNA levels of TLR7” value was “significantly decreased”. The “proliferation of T cells in splenocytes” value in the assay on T cells in splenocytes was “significant decreased”. In addition, in the assay with renal ROS production (vs ASLN group, p<0.01, FIG. 4A), the “renal ROS production (superoxide anion levels in renal tissues)” value is “significantly decreased”. The “DHE fluorescence intensity (in situ ROS production in kidney)” value with renal ROS production (week 3, FIGS. 4B and 4C) was “very low”; in the assay on renal ROS production (week 5, FIGS. 4B and 4C), “very low”. Besides, in assay [2] (p<0.005, FIG. 5B), the “serum MCP-1” value is on record as “significantly decreased”. For the same compound, in assay [2] (p<0.005, FIG. 5C), the “serum IL-12 p70” value is on record as “significantly decreased”. In addition, the “serum IL-6” value in assay [2] (p<0.005, FIG. 5D) is recorded as “significantly decreased”. For the same compound, the “serum TNFα” value in assay [2] (p<0.005, FIG. 5E) was “significantly decreased”. Besides, the “serum IL-10” value in assay [2] (p<0.005, FIG. 5F) is reported as “significantly decreased”. Further, in assay [2] (p<0.01, FIG. 5A), the “serum IFN-γ” value is given as “significant decreased”. For the same compound, the “serum level of BUN” value in assay [3] (ASLN mice, daily oral gavage, vs ASLN group, p<0.05, FIG. 1C) is given as “significantly decreased”. For the same compound, in assay [3] (ASLN mice, daily oral gavage, vs ASLN group, p<0.05, FIG. 1D), the “serum level of creatinine” value is given as “significantly decreased”. Moreover, in assay [3] (ASLN mice, daily oral gavage, vs ASLN group, FIG. 1A), the “proteinuria (urine albumin/creatinine ratio)” value is given as “significantly decreased”. Moreover, the hematuria entry in assay [3] (ASLN mice, daily oral gavage, vs ASLN group, FIG. 1B) is reported as “significantly decreased”. Also, the “development of lupus nephritis (overall conclusion)” value in assay [3] (summary of the ASLN mouse study) is “effective in preventing development of lupus nephritis”. The “renal lesions (neutrocyte infiltration, crescent-like formation, periglomerular inflammation, tubular atrophy, proteinaceous casts, fibrinoid necrosis)” value in assay [4] (vs ASLN+vehicle, all p<0.005) is “greatly decreased”. Also, the glomerular proliferation result in assay [4] was “mild glomerular proliferation was present”.

The values are drawn from patent US9844560B2, “Use of ginsenoside M1 for treating lupus nephritis” (priority 2014, dated 2017).
